Reference: ChEMBL document CHEMBL1255559, “Novel macrocyclic HCV NS3 protease inhibitors derived from α-amino cyclic boronates” (Bioorg Med Chem Lett, 2010)

What was measured:
Hepatitis C virus [1] = assay: Antiviral activity against HCV 1a infected in human hepatoma cells by replicon assay; format: functional, organism-based, Hepacivirus hominis; settings: subtype 1a
Hepatitis C virus [2] = assay: Antiviral activity against HCV 1b infected in human hepatoma cells by replicon assay; format: functional, organism-based, Hepacivirus hominis; settings: genotype 1b
[3] = Inhibition of HCV 1a NS3/4A protease by FRET assay; set-up: species or system Hepatitis C virus subtype 1a

| SMILES | EC50 (Hepatitis C virus [1]) [µM] | EC50 (Hepatitis C virus [2]) [µM] | IC50 [3] [µM] |
| --- | --- | --- | --- |
| CC(C)(C)[C@H](NC(=O)OC1CCCC1)C(=O)N1C[C@H](OC(=O)N2Cc3cccc(F)c3C2)C[C@H]1C(=O)N[C@@H]1BOCC1 | 8.7 | > 10 |  |
| CC1(C)CCCCc2cccc3c2CN(C3)C(=O)O[C@@H]2C[C@@H](C(=O)N[C@@H]3BOC[C@@H]3C3CC3)N(C2)C(=O)[C@H](C(C)(C)C)NC(=O)OC1 | 0.98 | 4.2 | 0.11 |
| CC1(C)CCCCc2cccc3c2CN(C3)C(=O)O[C@@H]2C[C@@H](C(=O)N[C@H]3CCCOB3O)N(C2)C(=O)[C@H](C(C)(C)C)NC(=O)OC1 | 1.3 | 2.8 | 0.062 |
| CC1(C)CCCCc2cccc3c2CN(C3)C(=O)O[C@@H]2C[C@@H](C(=O)N[C@H]3CCCCOB3O)N(C2)C(=O)[C@H](C(C)(C)C)NC(=O)OC1 | 0.38 | 0.2 | 0.047 |
| CC1(C)CCCCc2cccc3c2CN(C3)C(=O)O[C@@H]2C[C@@H](C(=O)N[C@@H]3CCCOB3O)N(C2)C(=O)[C@H](C(C)(C)C)NC(=O)OC1 | 12 | > 25 | 1.3 |
| CC1(C)CCCCc2cccc3c2CN(C3)C(=O)O[C@@H]2C[C@@H](C(=O)N[C@@H]3CCCCOB3O)N(C2)C(=O)[C@H](C(C)(C)C)NC(=O)OC1 | 3.7 | 3.9 | 0.3 |
| CC[C@@H]1C[C@]1(NC(=O)[C@@H]1C[C@@H]2CN1C(=O)[C@H](C(C)(C)C)NC(=O)OCC(C)(C)CCCCc1cccc3c1CN(C3)C(=O)O2)C(=O)NS(=O)(=O)C1CC1 | ≤ 0.001 | ≤ 0.001 |  |

More lines, in order of falling EC50 (Hepatitis C virus [1]), values ahead:

| EC50 (Hepatitis C virus [1]) [µM] | EC50 (Hepatitis C virus [2]) [µM] | IC50 [3] [µM] | SMILES |
| --- | --- | --- | --- |
| 33 | 30 | 25 | C[C@@H]1COB[C@@H]1NC(=O)[C@@H]1C[C@@H]2CN1C(=O)[C@H](C(C)(C)C)NC(=O)OCC(C)(C)CCCCc1cccc3c1CN(C3)C(=O)O2 |
| 11 | > 50 | 1.4 | CC1(C)CCCCc2cccc3c2CN(C3)C(=O)O[C@@H]2C[C@@H](C(=O)N[C@H]3BOCC3)N(C2)C(=O)[C@H](C(C)(C)C)NC(=O)OC1 |
| 1.9 | 1.7 | 0.13 | C[C@H]1COB[C@H]1NC(=O)[C@@H]1C[C@@H]2CN1C(=O)[C@H](C(C)(C)C)NC(=O)OCC(C)(C)CCCCc1cccc3c1CN(C3)C(=O)O2 |
| 0.78 | 0.354 | 0.043 | CC1(C)CCCCc2cccc3c2CN(C3)C(=O)O[C@@H]2C[C@@H](C(=O)N[C@@H]3BOCC3)N(C2)C(=O)[C@H](C(C)(C)C)NC(=O)OC1 |
